Experimental data taken from US20250296971A1, “GASTRIC INHIBITORY PEPTIDE RECEPTOR LIGANDS” (priority 2021, published 2025).
*1 amine or outer side, *2 acyl side, *3 side chain or, on linkers, in order; H or OH if unused. Where a SMILES comes first, the peptide text is derived from it. Bridges are numbered along the chain shown (N, C = ends). [ ]: non-standard residue; d: D form. The star is where a group is joined. X5 = NC(=O)[C@H](CCCCNC(=O)CN1CCN(CC(=O)O)CCN(CC(=O)O)CCN(CC(=O)O)CC1)NC(=O)CCC(=O)NCCCOCCOCCOCCCN*; X3 = O=C(O)CN1CCN(CC(=O)O)CCN(CC(=O)NCCCOCCOCCOCCCN*)CCN(CC(=O)O)CC1; DOTA = O=C(O)CN1CCN(CC(=O)O)CCN(CC(=O)*)CCN(CC(=O)O)CC1; Trp(5-Cl) = N[C@@H](Cc1c[nH]c2ccc(Cl)cc12)C(=O)O; Pyridine(2,6-diCH2) = c1cc(C[*:1])nc(C[*:2])c1; Pro(4S-NH2) = N[C@@H]1CN[C@H](C(=O)O)C1; Pro(4R-NH2) = N[C@H]1CN[C@H](C(=O)O)C1; mXylylene = c1cc(C[*:1])cc(C[*:2])c1; X6 = c1cc(CSCCN[*:2])nc(C[*:1])c1; X7 = c1cc(CSCCN[*:2])cc(C[*:1])c1; Hyp = O=C(O)[C@@H]1C[C@@H](O)CN1; X1 = O=C(CN1CCC(N[*:1])CC1)[*:2]; Suc = O=C(CCC(=O)[*:2])[*:1]; Api = NC1(C(=O)O)CCNCC1; Thp = NC1(C(=O)O)CCOCC1; Aib = CC(C)(N)C(=O)O

Assays:
[1] = target: T1, GIPR (CHO-K1-hGIPR cells) (Homo sapiens, UniProt P48546); experiment: FACS binding assay; conditions: competition with 20 nM GIP-057, 4° C., 1 hour, read-out: pIC50 Category (converted)
T1 construct: host or cells: CHO-K1
T1 sequence (P48546 22-466): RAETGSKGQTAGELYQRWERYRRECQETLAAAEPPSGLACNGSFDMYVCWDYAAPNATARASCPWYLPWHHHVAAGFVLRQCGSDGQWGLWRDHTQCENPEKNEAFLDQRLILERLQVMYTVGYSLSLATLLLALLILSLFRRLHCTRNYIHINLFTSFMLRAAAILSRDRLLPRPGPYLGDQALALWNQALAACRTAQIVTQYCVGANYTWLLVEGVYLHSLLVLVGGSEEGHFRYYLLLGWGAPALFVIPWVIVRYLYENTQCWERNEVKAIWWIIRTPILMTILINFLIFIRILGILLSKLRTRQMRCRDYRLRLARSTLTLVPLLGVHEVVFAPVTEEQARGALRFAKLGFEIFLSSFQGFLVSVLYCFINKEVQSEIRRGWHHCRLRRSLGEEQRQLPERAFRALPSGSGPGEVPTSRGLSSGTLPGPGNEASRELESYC
Outline: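 Median fluorescence in the APC channel, measured on washed CHO-K1 cells overexpressing human GIPR, was fitted by four-parameter logistic regression against peptide concentration to yield EC50 or IC50 values. Secondary labelling used APC-streptavidin (1 μg/mL, 30 min, ice).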

[2] = target: T2, human GIP receptor (bioGIPR) (Homo sapiens, UniProt P48546); experiment: Surface plasmon resonance (SPR) based binding assay; conditions: Single Cycle Kinetic mode, 25° C.; for Kd: SPR, 1:1 Langmuir binding model, read-out: pKD Category (converted); for t1/2 Category: SPR dissociation half-life
T2 construct: Biotinylate extracellular of the human GIP receptor (bioGIPR, Proteros biostructures GmbH, lot #02/2b); purchased Proteros biostructures GmbH lot #02/2b
T2 sequence (P48546 22-138 limits assumed): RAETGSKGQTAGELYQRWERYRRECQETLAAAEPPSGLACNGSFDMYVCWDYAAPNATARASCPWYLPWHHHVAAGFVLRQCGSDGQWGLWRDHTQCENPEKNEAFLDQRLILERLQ
Method: Surface plasmon resonance (SPR) studies were performed using a Biacore™ T200 SPR system. Briefly, polarized light is directed towards a gold-labeled sensor surface, and minimum intensity reflected light is detected. The angle of reflected light changes as molecules bind and dissociate.
Biotinylate extracellular of the human GIP receptor (bioGIPR, Proteros biostructures GmbH, lot #02/2b) was captured on a biotin capture chip (Biotin CAPture Kit, Series S, GE Healthcare, Cat #28-9202-34). bioGIPR was diluted in Running Buffer (HBST from Xantec Analytics; […], 0.05% Tween20, 0.1% DMSO) to a final concentration 100 nM and than flushed over the Fc-capture chip to immobilized ˜3500 RUs.
Stock solutions of test compounds were prepared by dissolving each compound in DMSO. DMSO stock solution were diluted 1:1000 in Running Buffer without DMSO. Further sequential dilutions were made with Running Buffer containing 0.1% DMSO. SPR binding analyses were performed in Single Cycle Kinetic (SCK) mode at 25° C. Flow cell without immobilized bioGIPR served as reference flowcell. After each SCK run, bioGIRP and the Biotin Capture Reagent was removed with Regeneration Solution (6 M Guanidium, 0.75 M NaOH).
In between every three SCK measurements, a blank run with Running Buffer instead of test compound was included to correct for baseline drifts (double blanking method).
For each test compound, SPR raw data in the form of resonance units (RU) were plotted as sensorgrams using the Biacore™ T200 control software. The signal from the blank sensorgram was subtracted from that of the test compound sensorgram (blank corrected). The blank corrected sensorgram was corrected for baseline drift by subtracting the sensorgram of a SCK run without the test compound (running buffer only). The association rate (kon), dissociation rate (koff), dissociation constant (KD), and t1/2 were calculated from blank corrected SPR data using the 1:1 Langmuir binding model from the Biacore™ T200 evaluation software. Raw data and fit results were imported as text files in IDBS. The pKD value (negative decadic logarithm of dissociation constant) was calculated in the IDBS excel template.

| SMILES | IC50 [1] | Kd [2] | t1/2 Category [2] |
| --- | --- | --- | --- |
| CC[C@H](C)[C@@H]1NC(=O)[C@H](CC(C)C)NC(=O)C(C)(C)NC(=O)[C@@H](NC(=O)[C@@H](CC(C)C)NC(=O)[C@H](CCC(=O)O)NC(=O)[C@@H]2CCCN2C(=O)[C@H](Cc2c[nH]c3ccc(Cl)cc23)NC(=O)[C@H](Cc2c[nH]c3ccccc23)NC(=O)[C@H](CC(=O)O)NC(=O)CCC(=O)NCCCOCCOCCOCCCNC(=O)CN2CCN(CC(=O)O)CCN(CC(=O)O)CCN(CC(=O)O)CC2)CSCc2cccc(c2)CSCCNC1=O [GIP-077, DOTA-Ttds-Asp-Trp-5Clw-Pro-Glu-leu-[Cys(3MeBn)-Aib-Leu-Ile-AET]] ({X3-Suc}-DW[Trp(5-Cl)]PE[dL]C[Aib]LI; linker 7-C via X7) | < 10 nM | < 1 nM | – |
| CC[C@H](C)[C@@H]1NC(=O)[C@H](CC(C)C)NC(=O)C(C)(C)NC(=O)[C@@H](NC(=O)[C@@H](CC(C)C)NC(=O)[C@H](CCC(=O)O)NC(=O)[C@@H]2CCCN2C(=O)[C@H](Cc2c[nH]c3ccc(Cl)cc23)NC(=O)[C@H](Cc2c[nH]c3ccccc23)NC(=O)[C@H](CC(=O)O)NC(C)=O)CSCc2cccc(c2)CSC[C@@H](C(=O)NCCCOCCOCCOCCCNC(=O)CCC(=O)N[C@@H](CCCCNC(=O)CN2CCN(CC(=O)O)CCN(CC(=O)O)CCN(CC(=O)O)CC2)C(N)=O)NC1=O [GIP-079, Ac-Asp-Trp-5Clw-Pro-Glu-leu-[Cys(3MeBn)-Aib-Leu-Ile-Cys]-Ttds-Lys(DOTA)-NH2] (Ac-DW[Trp(5-Cl)]PE[dL]C[Aib]LIC-X5; linker 7-11 via mXylylene) | < 10 nM | < 1 nM | A (t1/2 values>15 min) |
| CC[C@H](C)[C@@H]1NC(=O)[C@H](CC(C)C)NC(=O)C(C)(C)NC(=O)[C@@H](NC(=O)[C@@H](CC(C)C)NC(=O)[C@H](CCC(=O)O)NC(=O)[C@@H]2C[C@@H](N)CN2C(=O)[C@H](Cc2c[nH]c3ccc(Cl)cc23)NC(=O)[C@H](Cc2c[nH]c3ccccc23)NC(=O)[C@H](CC(=O)O)NC(=O)CCC(=O)NCCCOCCOCCOCCCNC(=O)CN2CCN(CC(=O)O)CCN(CC(=O)O)CCN(CC(=O)O)CC2)CSCc2cccc(c2)CSCCNC1=O [GIP-095, DOTA-Ttds-Asp-Trp-5Clw-Tap-Glu-leu-[Cys(3MeBn)-Aib-Leu-Ile-AET]] ({X3-Suc}-DW[Trp(5-Cl)][Pro(4R-NH2)]E[dL]C[Aib]LI; linker 7-C via X7) | < 10 nM | < 1 nM | A (t1/2 values>15 min) |
| CC[C@H](C)[C@@H]1NC(=O)[C@H](CC(C)C)NC(=O)C(C)(C)NC(=O)[C@@H](NC(=O)[C@@H](CC(C)C)NC(=O)[C@H](CCC(=O)O)NC(=O)[C@@H]2C[C@H](N)CN2C(=O)[C@H](Cc2c[nH]c3ccc(Cl)cc23)NC(=O)[C@H](Cc2c[nH]c3ccccc23)NC(=O)[C@H](CC(=O)O)NC(=O)CCC(=O)NCCCOCCOCCOCCCNC(=O)CN2CCN(CC(=O)O)CCN(CC(=O)O)CCN(CC(=O)O)CC2)CSCc2cccc(c2)CSCCNC1=O [GIP-096, DOTA-Ttds-Asp-Trp-5Clw-4Ap-Glu-leu-[Cys(3MeBn)-Aib-Leu-Ile-AET]] ({X3-Suc}-DW[Trp(5-Cl)][Pro(4S-NH2)]E[dL]C[Aib]LI; linker 7-C via X7) | < 10 nM | < 1 nM | A (t1/2 values>15 min) |
| CC[C@H](C)[C@@H]1NC(=O)[C@H](CC(C)C)NC(=O)C2(CCN(C(C)=O)CC2)NC(=O)[C@@H](NC(=O)[C@@H](CC(C)C)NC(=O)[C@H](CCC(=O)O)NC(=O)[C@@H]2CCCN2C(=O)[C@H](Cc2c[nH]c3ccc(Cl)cc23)NC(=O)[C@H](Cc2c[nH]c3ccccc23)NC(=O)[C@H](CC(=O)O)NC(=O)CCC(=O)NCCCOCCOCCOCCCNC(=O)CN2CCN(CC(=O)O)CCN(CC(=O)O)CCN(CC(=O)O)CC2)CSCc2cccc(c2)CSCCNC1=O [GIP-097, DOTA-Ttds-Asp-Trp-5Clw-Pro-Glu-leu-[Cys(3MeBn)-Apc(Ac)-Leu-Ile-AET]] ({X3-Suc}-DW[Trp(5-Cl)]PE[dL]C[Api](Ac)LI; linker 7-C via X7) | < 10 nM | < 1 nM | A (t1/2 values>15 min) |
| CC[C@H](C)[C@@H]1NC(=O)[C@H](CC(C)C)NC(=O)C2(CCOCC2)NC(=O)[C@@H](NC(=O)[C@@H](CC(C)C)NC(=O)[C@H](CCC(=O)O)NC(=O)[C@@H]2C[C@@H](O)CN2C(=O)[C@H](Cc2c[nH]c3ccc(Cl)cc23)NC(=O)[C@H](Cc2c[nH]c3ccccc23)NC(=O)[C@H](CC(=O)O)NC(=O)CN2CCC(NC(=O)CN3CCN(CC(=O)O)CCN(CC(=O)O)CCN(CC(=O)O)CC3)CC2)CSCc2cccc(n2)CSCCNC1=O [GIP-103, DOTA-APAc-Asp-Trp-5Clw-Hyp-Glu-leu-[Cys(2Lut)-Thp-Leu-Ile-AET]] ({DOTA}-[X1]DW[Trp(5-Cl)][Hyp]E[dL]C[Thp]LI; linker 8-C via X6) | < 10 nM | < 1 nM | A (t1/2 values>15 min) |

The remaining lines, values ahead:

| IC50 [1] | Kd [2] | t1/2 Category [2] | SMILES |
| --- | --- | --- | --- |
| < 10 nM | 1 to 7.94 nM | A (t1/2 values>15 min) | CC[C@H](C)[C@@H]1NC(=O)[C@H](CC(C)C)NC(=O)C2(CCOCC2)NC(=O)[C@@H](NC(=O)[C@@H](CC(C)C)NC(=O)[C@H](CCC(=O)O)NC(=O)[C@@H]2C[C@@H](O)CN2C(=O)[C@H](Cc2c[nH]c3ccc(Cl)cc23)NC(=O)[C@H](Cc2c[nH]c3ccccc23)NC(=O)[C@H](CC(=O)O)NC(=O)CN2CCC(NC(=O)CN3CCN(CC(=O)O)CCN(CC(=O)O)CCN(CC(=O)O)CC3)CC2)CNCc2cccc(n2)CSCCNC1=O [GIP-106, DOTA-APAc-Asp-Trp-5Clw-Hyp-Glu-leu-[Dap(2Lut)-Thp-Leu-Ile-AET]] |
| < 10 nM | < 1 nM | A (t1/2 values>15 min) | CC[C@H](C)[C@@H]1NC(=O)[C@H](CC(C)C)NC(=O)C2(CCOCC2)NC(=O)[C@@H](NC(=O)[C@@H](CC(C)C)NC(=O)[C@H](CCC(=O)O)NC(=O)[C@@H]2C[C@@H](O)CN2C(=O)[C@H](Cc2c[nH]c3ccc(Cl)cc23)NC(=O)[C@H](Cc2c[nH]c3ccccc23)NC(=O)[C@H](CC(=O)O)NC(=O)CN2CCC(NC(=O)CN3CCN(CC(=O)O)CCN(CC(=O)O)CCN(CC(=O)O)CC3)CC2)CNCc2cccc(c2)CSCCNC1=O [GIP-107, DOTA-APAc-Asp-Trp-5Clw-Hyp-Glu-leu-[Dap(3MeBn)-Thp-Leu-Ile-AET]] |
| < 10 nM | < 1 nM | A (t1/2 values>15 min) | CC[C@H](C)[C@@H]1NC(=O)[C@H](CC(C)C)NC(=O)C2(CCOCC2)NC(=O)[C@@H](NC(=O)[C@@H](CC(C)C)NC(=O)[C@H](CCC(=O)O)NC(=O)[C@@H]2C[C@@H](O)CN2C(=O)[C@H](Cc2c[nH]c3ccc(Cl)cc23)NC(=O)[C@H](Cc2c[nH]c3ccccc23)NC(=O)CCC(=O)O)CSCc2cccc(n2)CSC[C@@H](C(=O)NCCCOCCOCCOCCCNC(=O)CCC(=O)N[C@@H](CCCCNC(=O)CN2CCN(CC(=O)O)CCN(CC(=O)O)CCN(CC(=O)O)CC2)C(N)=O)NC1=O [GIP-108, HO-Succinyl-Trp-5Clw-Hyp-Glu-leu-[Cys(2Lut)-Thp-Leu-Ile-Cys]-Ttds-Lys(DOTA)-NH2] (Suc-W[Trp(5-Cl)][Hyp]E[dL]C[Thp]LIC-X5; linker 6-10 via Pyridine(2,6-diCH2)) |
